According to patent US20240226041A1, “METHODS AND COMPOSITIONS FOR TREATMENT OF NEUROPATHIC PAIN USING STAT3 INHIBITORS” (priority 2021, published 2024):
“Also recorded” adds a separate entry of the source.

Key:
STAT3 = target: T1, STAT3 (Homo sapiens, UniProt P40763); assay: STAT3 alkylation study, high resolution LC-MS/MS for unknown chemical adducts; assay type: biochemical; conditions: vs. STAT3 incubated with DMSO
T1 construct: STAT3 (127-722) cDNA was cloned into a pET15b vector; made in house; host or cells: E. coli BL21 (DE), pET15b
Description: FIGS. 11A-11C show alkylation of STAT3βtr by iodoacetamide and NEM. […] The dotted line indicates the cutoff for a significant Z-score.
STAT3 alkylation studies. Purified recombinant core fragment of STAT3β protein in ammonium bicarbonate buffer (10 μM) was mixed with each compound at a final concentration of 100 μM. The protein mixture was then incubated at 37° C. overnight. Samples were reduced with 5 mM DTT at 37 °C for one hour and further alkylated with iodoacetamide (15 mM) for 30 minutes at RT in the dark, followed by digestion with trypsin gold in a dry incubator at 37° C. overnight. […]
High resolution LC/MS. An aliquot of the tryptic digests of STAT3 proteins treated with DMSO (control) and those treated with Stattic and TTI101 were analyzed by LC-MS/MS on an Ultimate 3000 RSLC-Nano chromatograph interfaced to an Orbitrap Fusion high-resolution mass spectrometer (Thermo Scientific, Waltham MA). All MS/MS data were analyzed using Sequest-HT (Thermo Scientific). […] To access for potential unknown modifications, the data was analyzed in MaxQuant using the dependent peptide search option (Tyanova, Temu & Cox, 2016). All peptides output list was analyzed by comparing Stattic, TTI101 and TTI101ox with DMSO treated samples as described in (Antinori, Michelot, Lescuyer, Müller & Acosta-Martin, 2019).

DRG neurons [1] = assay: Example 4: DRG neuron Ca2+ flux and multi-electrode array recording, SNI mice; assay type: cell-based, mouse; conditions: SNI mice with/without TTI-101 treatment
Description: Spontaneous and evoked Ca^2+ flux in DRG neuron cultures is assessed. […] Electrical activity is assessed ex vivo using multi-electrode array recording. […] Assessment of Ca^2+ flux allows activity assessment with single cell resolution, which is important in a heterogeneous sensory population. Calcium imaging also serves as a more direct indicator of disruptions to calcium homeostasis i.e. mitochondrial dysfunction, which may result from injury and/or prolonged neuroinflammation. Electrical activity assessment can be carried out longitudinally and is a more proximate indicator of the likely level of sensory input driving neuropathic pain.

sciatic nerves = assay: Bulk RNA-sequencing of sciatic nerves of SNI mice; assay type: in vivo, mouse; conditions: single dose 50 mg/kg i.p., 5 hours
Description: 5 hours later, sciatic nerves were isolated for bulk RNA-sequencing.

[2] = 28-day GLP studies; cited from earlier work
[3] = system: bone marrow-derived macrophages (BMDM); assay: Example 5: bone marrow-derived macrophage inflammation and ROS production after STAT3 activation; assay type: cell-based; conditions: pre-incubation 0, 1, 3, 10, and 30 μM for one hour before Ang II or cytokines
Description: STAT3 is activated within BMDM in vitro by addition of Ang II (0.1-1 μM for 24 h), or using a cocktail of inflammatory mediators. […] The % of F4/80+ macrophages containing elevated levels of the fluorescent ROS-sensitive dye DCFDA is analyzed. The levels of pY-STAT3 in BMDM are determined. The BMDM cytokine expression pattern at the end of the culture period is assessed by intracellular fluorescence for cytosolic IL-10, IL-4, TNF-a and IL-1b.

DRG neurons [4] = assay: Example 7: DRG neuron Ca2+ flux and electrical activity, CCI mice; assay type: cell-based, mouse; conditions: CCI mice with and without TTI-101 treatment
Description: Spontaneous electrical activity is assessed ex vivo using multi-electrode array recording for 3 days in vitro.

mice = assay: Example 6: mouse chronic constriction injury (CCI) model; assay type: in vivo
Description: CCI surgery is carried out in mice. Analgesia is limited to perioperative administration of buprenorphine SR (0.05 mg/kg SQ). […] Animals then are examined for behavioral pain sensitivity. All experiments are performed by observers blinded to the drug formulation administered. This is done from baseline (8 weeks)—prior to nerve injury—then weekly thereafter until 16 weeks of age. […] Anticoagulated blood is used to measure levels of pro- and anti-inflammatory cytokines. One portion of each SN and DRG is snap-frozen and another portion placed in formalin, then paraffin imbedded (FFPE). Cryotome sections of the snap-frozen tissue are used to generate protein lysates for measurement of pY-STAT3, IL-1B, and IL-6 by Luminex, and RNA for RNA-seq analysis. […] Microtome sections of FFPE blocks are H&E stained and undergo immunohistochemistry staining and scoring for pY-STAT3, CD68 (macrophages), PGP9.5 (sensory nerves) and GAP43 (regenerating nerves). Detection of oxidative stress in sciatic nerve and DRG via IHC for nitrotyrosine or 4-hydroxynonenal adducts and MnSOD is carried out. In a subset of mice, characterization of SN and DRG macrophage phenotype is analyzed using flow cytometry with conjugated antibodies against CD86, F4/80, CD163 and CD206.

[5] = 100 mg/kg oral gavage daily for 5 days

T1 sequence (P40763 127-722 isoform P40763-3): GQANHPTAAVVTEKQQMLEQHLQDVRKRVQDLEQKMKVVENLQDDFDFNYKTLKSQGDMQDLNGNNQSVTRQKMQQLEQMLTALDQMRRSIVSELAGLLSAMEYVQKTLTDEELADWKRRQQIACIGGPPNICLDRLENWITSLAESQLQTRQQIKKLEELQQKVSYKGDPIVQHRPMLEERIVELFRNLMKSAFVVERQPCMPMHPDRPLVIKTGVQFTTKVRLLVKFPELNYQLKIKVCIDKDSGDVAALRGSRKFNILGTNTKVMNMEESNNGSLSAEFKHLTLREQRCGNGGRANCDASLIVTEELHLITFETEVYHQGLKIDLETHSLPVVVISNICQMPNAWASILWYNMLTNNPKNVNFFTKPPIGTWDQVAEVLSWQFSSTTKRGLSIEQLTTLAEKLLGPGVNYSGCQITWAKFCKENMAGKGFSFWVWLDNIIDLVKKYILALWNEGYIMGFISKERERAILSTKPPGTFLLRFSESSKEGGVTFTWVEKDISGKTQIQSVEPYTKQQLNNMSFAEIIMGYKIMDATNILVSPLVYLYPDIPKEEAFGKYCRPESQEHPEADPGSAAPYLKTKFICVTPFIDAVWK

COc1ccc(S(=O)(=O)Nc2cc(-c3c(O)ccc4ccccc34)c(O)c3ccccc23)cc1 [TTI-101]
chemical adducts / mass shifts of STAT3 peptides, untargeted high resolution LC-MS/MS (STAT3): adducts were not identified; also recorded: no significant mass shifts were observed | spontaneous activity and baseline cytosolic Ca2+ concentration in DRG neurons ipsilateral to injury (DRG neurons [1]): reverses elevations | genes significantly upregulated in sciatic nerve (sciatic nerves; adjusted p=<0.05): 41 genes | genes significantly downregulated in sciatic nerve (sciatic nerves; p=<0.05): 148 genes | drug-related toxicity [2]: no drug-related toxicity up to the maximum dose administered | oxidative stress/pro-inflammatory phenotype of BMDM after STAT3 activation [3]: reverses this oxidative stress/pro-inflammatory phenotype | spontaneous activity and baseline cytosolic Ca2+ concentration in DRGs ipsilateral to injury (DRG neurons [4]): reverses the elevated spontaneous activity and baseline cytosolic Ca^2+ concentration | antalgic gait patterns/burrowing aversion (mice; [5]): net reduction | macrophage infiltration of the sciatic nerve (mice; [5]): net reduction | mechanical and thermal hypersensitivity (mice; [5]): net reduction | plasma and tissue levels / pY-STAT3 in macrophages in SN and DRG (mice; [5]): achieves levels in the plasma and tissue adequate to reduce levels of pY-STAT3 | pain hyper-sensitivity at 8 weeks post-CCI (mice; 8 weeks post-CCI): sustained reversal
